For assay [1], the system named is T47D (PI3Kα-H1047R) cell line. Description: HTRF phospho-AKT(S473) cell assay in T47D cells. The class given is cell-based, human. Particulars: Homo sapiens, 2 hours compound incubation. The method in brief: (§1)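 T47D: RPMI + 10% FBS + 0.2 units/mL insulin, top 5 μM. SKBR3: McCoy's 5A + 10% FBS, top 10 μM, 70 ng/ml PDGF-BB last 15 min. Both: 12-pt 1:3, 2 h, 37° C, max 0.5% DMSO; HTRF pAKT(S473); IC50.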

Assay [2] has as its system SKBR3 (PI3Kα-Wild Type) cell line. The assay is described as follows: HTRF phospho-AKT(S473) cell assay in SKBR3 cells. The settings on record: Homo sapiens, SK-BR-3, 2 hours compound incubation, PDGF-BB stimulated. The class given is cell-based, human. In short, it runs like this: as §1
[3] abbreviates: HTRF phospho-AKT(S473), T47D (PI3Kα-H1047R) cells.
Setting [4] is: HTRF phospho-AKT(S473), SKBR3 (PI3Kα-Wild Type) cells.
The mark [5] stands for this setting: T47D (PI3Kα-H1047R) cells, HTRF phospho-AKT(S473).
Where [6] appears, read: SKBR3 (PI3Kα-Wild Type) cells, HTRF phospho-AKT(S473).

Drawing on US12281122B1, “PI3K inhibitors” (Cogent Biosciences, Inc., priority 2023, dated 2025), this text covers IC50 for 15 compounds.

Consider `[2H]C([2H])([2H])n1cc2cc(-c3nc4c([C@@H](C)Nc5ccc(Cl)nc5C(=O)NS(C)(=O)=O)cc(C)cc4c(=O)n3C)ccc2n1` [Compound 817, (R)-6-chloro-3-((1-(3,6-dimethyl-2-(2-(methyl-d3)-2H-indazol-5-yl)-4-oxo-3,4-dihydroquinazolin-8-yl)ethyl)amino)-N-(methylsulfonyl) picolinamide], for which the half-maximal inhibitory concentration (IC50) in assay [1] (setting [3]) is < 250 nM; in assay [2] (setting [4]), 1000 to 5000 nM.
`Cc1cc([C@@H](C)Nc2ccc(Cl)nc2C(=O)NS(=O)(=O)C2COC2)c2nc(N3Cc4ccc(F)cc4C3)n(C)c(=O)c2c1` [Compound 173, (R)-6-chloro-3-((1-(2-(5-fluoroisoindolin-2-yl)-3,6-dimethyl-4-oxo-3,4-dihydroquinazolin-8-yl)ethyl)amino)-N-(oxetan-3-ylsulfonyl)picolinamide]: the IC50 in assay [1] (setting [5]) is < 250 nM; in assay [2] (setting [6]) it was 1000 to 5000 nM.
With `Cc1cc([C@@H](C)Nc2ccc(Cl)nc2C(=O)NS(C)(=O)=O)c2nc(-c3ccc(-c4cnn(C)c4)cn3)n(C)c(=O)c2c1` [Compound 285, (R)-6-chloro-3-((1-(3,6-dimethyl-2-(5-(1-methyl-1H-pyrazol-4-yl)pyridin-2-yl)-4-oxo-3,4-dihydroquinazolin-8-yl)ethyl)amino)-N-(methylsulfonyl) picolinamide], the results for the 50% inhibitory concentration (IC50) in assay [1] (setting [5]) and in assay [2] (setting [6]) were < 250 nM and 1000 to 5000 nM, respectively.
As to `Cc1cc([C@@H](C)Nc2ccc(Cl)nc2C(=O)NS(C)(=O)=O)c2nc(N3CC[C@H](Oc4cnc(C)nc4)C3)n(C)c(=O)c2c1` [Compound 512, 6-chloro-3-(((R)-1-(3,6-dimethyl-2-((S)-3-((2-methylpyrimidin-5-yl)oxy)pyrrolidin-1-yl)-4-oxo-3,4-dihydroquinazolin-8-yl)ethyl)amino)-N-(methylsulfonyl) picolinamide], the IC50 is 250 to 500 nM in assay [1] (setting [3]) and 1000 to 5000 nM in assay [2] (setting [4]).
`Cc1cc([C@@H](C)Nc2ccc(Cl)nc2C(=O)NS(C)(=O)=O)c2nc(N3CCC(n4ccc(N(C)C)n4)CC3)n(C)c(=O)c2c1` [Compound 310, (R)-6-chloro-3-((1-(2-(4-(3-(dimethylamino)-1H-pyrazol-1-yl)piperidin-1-yl)-3,6-dimethyl-4-oxo-3,4-dihydroquinazolin-8-yl)ethyl)amino)-N-(methylsulfonyl) picolinamide]: the half-maximal inhibitory concentration (IC50) in assay [1] (setting [5]) is < 250 nM; in assay [2] (setting [6]) it was 1000 to 5000 nM.
Turning to `Cc1cc([C@@H](C)Nc2ccc(Cl)nc2C(=O)NS(C)(=O)=O)c2nc(N3CCC(c4c(C)n[nH]c4C)CC3)n(C)c(=O)c2c1` [Compound 232, (R)-6-chloro-3-((1-(2-(4-(3,5-dimethyl-1H-pyrazol-4-yl)piperidin-1-yl)-3,6-dimethyl-4-oxo-3,4-dihydroquinazolin-8-yl)ethyl)amino)-N-(methylsulfonyl) picolinamide], the 50% inhibitory concentration (IC50) is < 250 nM in assay [1] (setting [5]) and 1000 to 5000 nM in assay [2] (setting [6]).
With `Cc1cc([C@@H](C)Nc2ccc(Cl)nc2C(=O)NS(C)(=O)=O)c2nc(N3CCC(c4cn[nH]c4)CC3)n(C)c(=O)c2c1` [Compound 167, (R)-3-((1-(2-(4-(1H-pyrazol-4-yl)piperidin-1-yl)-3,6-dimethyl-4-oxo-3,4-dihydroquinazolin-8-yl)ethyl)amino)-6-chloro-N-(methylsulfonyl) picolinamide], the half-maximal inhibitory concentration (IC50) is < 250 nM in assay [1] (setting [5]) and 1000 to 5000 nM in assay [2] (setting [6]).
As for `Cc1cc([C@@H](C)Nc2ccc(Cl)nc2C(=O)NS(C)(=O)=O)c2nc(N3CCC(c4nn(C)cc4Cl)CC3)n(C)c(=O)c2c1` [Compound 702, (R)-6-chloro-3-((1-(2-(4-(4-chloro-1-methyl-1H-pyrazol-3-yl)piperidin-1-yl)-3,6-dimethyl-4-oxo-3,4-dihydroquinazolin-8-yl)ethyl)amino)-N-(methylsulfonyl) picolinamide], the concentration for half-maximal inhibition (IC50) in assay [1] (setting [3]) was 250 to 500 nM; in assay [2] (setting [4]) it was ≥ 5000 nM.
For `COCCn1ncc(F)c1C1CCN(c2nc3c([C@@H](C)Nc4ccc(Cl)nc4C(=O)NS(C)(=O)=O)cc(C)cc3c(=O)n2C)CC1` [Compound 472, (R)-6-chloro-3-((1-(2-(4-(4-fluoro-1-(2-methoxyethyl)-1H-pyrazol-5-yl)piperidin-1-yl)-3,6-dimethyl-4-oxo-3,4-dihydroquinazolin-8-yl)ethyl)amino)-N-(methylsulfonyl) picolinamide], the figures for the IC50 in assay [1] (setting [3]) and in assay [2] (setting [4]) were < 250 nM and ≥ 5000 nM, respectively.
Regarding `Cc1cc([C@@H](C)Nc2ccc(Cl)nc2C(=O)NS(C)(=O)=O)c2nc(-c3ccc(-c4nc(C)no4)nc3)n(C)c(=O)c2c1` [Compound 843, (R)-6-chloro-3-((1-(3,6-dimethyl-2-(6-(3-methyl-1,2,4-oxadiazol-5-yl)pyridin-3-yl)-4-oxo-3,4-dihydroquinazolin-8-yl)ethyl)amino)-N-(methylsulfonyl) picolinamide], the IC50 in assay [1] (T47D (PI3Kα-H1047R) cell line, phospho-AKT(S473) HTRF) lay in the range of 250 to 500 nM; in assay [2] (SKBR3 (PI3Kα-Wild Type) cell line, phospho-AKT(S473) HTRF), 1000 to 5000 nM.
Regarding `Cc1cc([C@@H](C)Nc2ccc(Cl)nc2C(=O)NS(C)(=O)=O)c2nc(N3C[C@H]4C[C@@H]3CN4c3ccn(C)n3)n(C)c(=O)c2c1` [Compound 229, 6-chloro-3-(((R)-1-(3,6-dimethyl-2-((1R,4R)-5-(1-methyl-1H-pyrazol-3-yl)-2,5-diazabicyclo[2.2.1]heptan-2-yl)-4-oxo-3,4-dihydroquinazolin-8-yl)ethyl)amino)-N-(methylsulfonyl) picolinamide], the IC50 in assay [1] (setting [5]) is < 250 nM; in assay [2] (setting [6]), 1000 to 5000 nM.
Regarding `Cc1cc([C@@H](C)Nc2ccc(Cl)nc2C(=O)NS(C)(=O)=O)c2nc(N3C[C@@H]4[C@H](C3)[C@H]4c3ccnn3C3CC3)n(C)c(=O)c2c1` [Compound 460, 6-chloro-3-(((R)-1-(2-((1R,5S,6R)-6-(1-cyclopropyl-1H-pyrazol-5-yl)-3-azabicyclo[3.1.0]hexan-3-yl)-3,6-dimethyl-4-oxo-3,4-dihydroquinazolin-8-yl)ethyl)amino)-N-(methylsulfonyl) picolinamide], the IC50 was < 250 nM in assay [1] (setting [3]) and 1000 to 5000 nM in assay [2] (setting [4]).
The corresponding values for `Cc1cc([C@@H](C)Nc2ccc(Cl)nc2C(=O)NS(C)(=O)=O)c2nc(-c3cc4cn(C)nc4cn3)n(C)c(=O)c2c1` [Compound 839, (R)-6-chloro-3-((1-(3,6-dimethyl-2-(2-methyl-2H-pyrazolo[3,4-c]pyridin-5-yl)-4-oxo-3,4-dihydroquinazolin-8-yl)ethyl)amino)-N-(methylsulfonyl) picolinamide] are 250 to 500 nM and 1000 to 5000 nM.
With `Cc1cc([C@@H](C)Nc2ccc(Cl)nc2C(=O)NS(C)(=O)=O)c2nc(N3CCC[C@H](c4cnc(C)nc4)C3)n(C)c(=O)c2c1` (relative stereo) [Compound 646, 6-chloro-3-(((R)-1-(3,6-dimethyl-2-((R*)-3-(2-methylpyrimidin-5-yl)piperidin-1-yl)-4-oxo-3,4-dihydroquinazolin-8-yl)ethyl)amino)-N-(methylsulfonyl) picolinamide], the figures for the 50% inhibitory concentration (IC50) in assay [1] (setting [3]) and in assay [2] (setting [4]) were < 250 nM and ≥ 5000 nM, respectively.
As to `Cc1cc([C@@H](C)Nc2ccc(Cl)nc2C(=O)NS(C)(=O)=O)c2nc(-c3ccc(O[C@@H]4CCNCC4(F)F)nc3)n(C)c(=O)c2c1` [Compound 333, 6-chloro-3-(((R)-1-(2-(6-(((R)-3,3-difluoropiperidin-4-yl)oxy)pyridin-3-yl)-3,6-dimethyl-4-oxo-3,4-dihydroquinazolin-8-yl)ethyl)amino)-N-(methylsulfonyl) picolinamide], the IC50 in assay [1] (setting [5]) is < 250 nM; in assay [2] (setting [6]), 1000 to 5000 nM.
